Test results published in US20230069174A1, “NITROGEN-CONTAINING HETEROCYCLIC AUTOTAXIN INHIBITOR, AND COMPOSITION CONTAINING SAME AND USE THEREOF” (SICHUAN HAISCO PHARMACEUTICAL CO., LTD., priority 2019, published 2023).
Like-named read-outs stand apart in the source and are kept apart here.

Experiments:
ATX = target: T1, ATX (Homo sapiens, UniProt Q13822); experiment: ATX inhibitory activity: LPA production in pooled human plasma, LC-MS-MS; type: biochemical; conditions: 37° C. 2 h
T1 construct: ATX activity was detected by detecting LPA production in pooled human plasma; from tissue; host or cells: pooled human plasma (heparin-anticoagulated whole blood, centrifuged)
Procedure: Experimental subject: compounds to be tested.
ATX activity was detected by detecting LPA production in pooled human plasma. Whole blood anticoagulated with heparin was collected and centrifuged, and then plasma was collected. 5-μL gradient dilution of the compound to be tested or DMSO was added to 95-μL plasma, incubated at 37° C. for 2 h, then a stop solution (40 mM disodium hydrogen phosphate buffer, containing a buffer solution (containing 30 mM citric acid, pH=4)) was added. LPA in plasma was detected by LC-MS-MS before and after incubation.
LPA (18:2) and (20:4) LC-MS-MS analytical method
Using a 1.5 mL EP tube, 3.0 μL of each of the working solutions for standard curve and quality control was taken and added to 27.0 μL of water. After homogeneously mixing by vortex, 400 μL of internal standard solution was added. After homogeneously mixing by vortex, the mixture was centrifuged at 4° C. for 10 min. 180 μL of supernatant was taken and added into a 96-well plate, waiting for sample injection.
10 μL of the compound to be tested (10 mg/ml) was precisely pipetted into an EP tube, 990 μL of DMSO solution was added, and the mixture was vortexed to completely dissolve to obtain a solution (100 μg/mL).
Inhibition rate of ATX receptor activity was calculated in the following way: inhibition rate %=((LPAc−LPA0)−(LPAi−LPA0))/(LPAc−LPA0)*100%, wherein LPAc was the LPA content in plasma after DMSO was added and incubated for 2 h, LPA0 was the LPA content in plasma before DMSO was added for incubation, and LPAi was the LPA content in plasma after test compound was added and incubated for 2 h.

[1] = Pharmacokinetic experiment in mice (single dose iv and intragastric); type: in vivo; conditions: mouse, plasma, male C57 mice; for bioavailability: po 10 mg/kg vs iv 2.5 mg/kg, read-out: F (bioavailability)
Procedure: Experimental objective: In this experiment, a single dose of each test compound was administered to C57 mice intravenously and intragastrically, the concentrations of the compounds 35, 37 and 38 in plasma of the mice were measured, and the pharmacokinetic characteristics and bioavailability of each test compound in mice were evaluated.
Experimental animals: Male C57 mice, 20-25 g, 6-8 weeks old, 18 mice/compound. The experimental animals were purchased from CHENGDU DOSSY EXPERIMENTAL ANIMALS CO., LTD.
Experimental method: On the day of the experiment, 18 C57 mice were randomly grouped according to their body weight. The animals were fasted with water available for 12 to 14 hours one day before the administration of a test compound, and were fed 4 hours after the administration.
Before and after the administration, 0.08 ml of blood was taken from the orbit of the […] under isoflurane anesthesia, and placed in an EDTAK2 centrifuge tube. Centrifugation was carried out at 5000 rpm at 4° C. for 10 min and the plasma was collected.
Time points for plasma collection in G1 group: 0, 5, 15, 30 min, 1, 2, 4, 6, 8, and 24 h.
Time points for plasma collection in G2 group: 0, 15, 30 min, 1, 2, 4, 6, 8, and 24 h.
Before analysis and detection, all samples were stored at −80° C.
30 μL of each of plasma sample, standard curve and quality control sample was taken, and 200 μL of acetonitrile solution containing internal standard was added, and the mixture was homogeneously mixed by vortex, and then centrifuged at 12000 rpm for 10 min at 4° C. The supernatant was taken and added into a 96-well plate and analyzed by LC-MS/MS.
The main pharmacokinetic parameters were analyzed by non-compartmental model using WinNonlin 8.0 software.

[2] = LPA 18:2 readout, read-out: Inhibitory activity against ATX receptor, LPA 18:2 IC50
[3] = LPA 20:4 readout, read-out: Inhibitory activity against ATX receptor, LPA 20:4 IC50

Compound | IC50 (ATX; [2]) [nM] | IC50 (ATX; [3]) [nM] | bioavailability [1] [%] | AUC ([1]; iv 2.5 mg/kg) [ng·h/mL] | C0 ([1]; iv 2.5 mg/kg) [ng/mL] | half-life ([1]; iv 2.5 mg/kg) [min] | AUC ([1]; po 10 mg/kg) [ng·h/mL] | Cmax ([1]; po 10 mg/kg) [ng/mL] | Tmax ([1]; po 10 mg/kg) [min] | half-life ([1]; po 10 mg/kg) [min]
O=C(Cc1nnc(-c2cnc(N[C@@H]3Cc4ccc(C(F)(F)F)cc4C3)nc2)o1)N1CCc2[nH]nnc2C1 [Compound 35, (R)-1-(1,4,6,7-tetrahydro-5H-[1,2,3]triazolo[4,5-c]pyridin-5-yl)-2-(5-(2-((5-(trifluoromethyl)-2,3-dihydro-1H-inden-2-yl)amino)pyrimidin-5-yl)-1,3,4-oxadiazol-2-yl)ethan-1-one] | 2.17 | 2.25 | 35.6 | 6780 | 6850 | 61.2 | 9650 | 3370 | 30 | 56.8
O=C(Cc1nnc(-c2cnc(N[C@@H]3Cc4ccc(C(F)F)cc4C3)nc2)o1)N1CCc2[nH]nnc2C1 [Compound 37, (R)-2-(5-(2-((5-(difluoromethyl)-2,3-dihydro-1H-inden-2-yl)amino)pyrimidin-5-yl)-1,3,4-oxadiazol-2-yl)-1-(1,4,6,7-tetrahydro-5H-[1,2,3]triazolo[4,5-c]pyridin-5-yl)ethan-1-one] | 4.84 | 4.78 | 17.8 | 3790 | 6640 | 53.3 | 2700 | 1600 | 15 | 78.6
